{
  "source": "patent US20020137779A1",
  "about": "“Use of L-2-oxothiazolidine-4-carboxylic acid for the treatment of type 2 diabetes” (Advanced Biochemicals Inc., priority 2001, published 2002)",
  "key": {"[1]": {"tested_on": "type 2 diabetes mice (C57BL/KsJ-db/db Jcl)", "assay": "serum insulin after a single oral dose and glucose loading (Example 2)", "format": "in vivo, mouse", "settings": "for Conc. of insulin: glucose 1 g/kg i.p. after 5 hours, serum 30 minutes later", "method": "Second step; Determining optimum L-2-oxothiazolidine-4-carboxylic acid concentration which is appropriate for enhancing insulin secretion and lowering blood glucose levels in a type 2 diabetes mouse, by administering 0-400 mg/kg of L-2-oxothiazolidine-4-carboxylic acid orally,\nThe present example is to show an appropriate concentration of L-2-oxothiazolidine-4-carboxylic acid for the purpose of improving the ability of insulin secretion and lowering blood glucose levels, by varying the concentrations of L-2-oxothiazolidine-4-carboxylic acid in a single oral dose to type 2 diabetes mice.\nThe present inventors ascertained the effect of various concentrations of L-2-oxothiazolidine-4-carboxylic acid on lowering blood glucose level and insulin secretion. in which experiments enough sterilized-feed and water was given to 6 week old C57BL mice(Samtako, purchased from Clea, Japan) in the light condition of 12L: 12D for a week, bred the mice in the incubator of A.B.J Co.(Building 1 Chonbuk National University Medical School, Chonju, Korea) for a week, and no feed but water was given to the mice for 13 hours before insulin and glucose levels were measured.\n0.2 ml of PBS (pH 7.4) was orally given to the control group(5 mice) using feeding needle, and 1.5-400 mg/kg of L-2-oxothiazolidine-4-carboxylic acid, dissolved in 0.2 ml of PBS and its pH was adjusted to 7.2 with 3 N NaOH(Junsei, Japan), was orally administered to experimental group(5 mice). After 5 hours of the drug administration, glucose(Sigma, USA) was injected intraperitoneally at the concentration of 1 g/kg, and incubated the mice for 30 minutes. Immediately after the mice were anesthetized with ether, the thoraces of the mice was incised to take blood, serum was isolated, and the insulin concentration of the mice-serum was measured by radioimmunoassay using rat insulin assay kit(Amersham Pharmacia Bio Co., USA)."}, "[2]": {"tested_on": "type 2 diabetes mice (C57BL/KsJ-db/db Jcl)", "assay": "blood glucose levels after oral administration for 1-4 weeks (Example 4)", "format": "in vivo, mouse", "settings": "for duration of the blood glucose lowering effect: after glucose intake", "method": "The chemical L-2-oxothiazolidine-4-carboxylic acid was orally administered to diabetes mice(C57BL/KsJ-db/db Jcl) with a single dose of 3.0-400 mg/kg once in the state of empty stomach or 40-80 mg/kg twice a day for 1-4 weeks continuously.\nSeven week old type 2 diabetes mice were maintained as in EXAMPLE 2. 0.2 ml of PBS (pH 7.4) was given to a control group twice a day for 1-4 weeks, and 40-80 mg/kg of L-2-oxothiazolidine-4-carboxylic acid dissolved in 0.2 ml of PBS of which pH was adjusted to 7.4 with 3 N NaOH(Junsei, Japan) was orally administered to an experimental group.\nThe results of blood glucose levels shown in FIG. 7 were obtained, after 40-80 mg/kg of L-2-oxothiazolidine-4-carboxylic acid was administered to type 2 diabetes mice twice a day for two weeks and after glucose was subsequently given, as described in […]"}, "[3]": {"tested_on": "type 2 diabetes mice (C57BL/KsJ-db/db Jcl)", "assay": "blood insulin concentration after oral administration for four weeks (Example 5)", "format": "in vivo, mouse", "settings": "80 mg/kg per day for four weeks", "method": "Fifth step Determining the ability of insulin secretion after oral administration of L-2-oxothiazolidine-4-carboxylic acid for 4 weeks to a 7 week old type 2 diabetes mouse, and\nSeven week old type 2 diabetes mice were maintained as in EXAMPLE 2. 0.2 ml of PBS (pH 7.4) was given to a control group(4 mice) twice a day for four weeks, and 80 mg/kg of L-2-oxothiazolidine-4-carboxylic acid dissolved in 0.2 ml of PBS of which pH was adjusted to 7.4 with 3 N NaOH(Junsei, Japan), was orally administered to an experimental group(4 mice). Five hours after the drug was finally administered, 1 g/kg of glucose was intraperitoneally injected. Tails were cut, blood samples were taken from the tails at 60 min. time intervals until 180 min., the samples were left at room temperature for three hours, sera were collected, and the insulin concentration was measured by radioimmunoassay."}, "[4]": {"assay": "ED50 by linear regression method", "format": "in vivo", "settings": "calculated by linear regression method; read-out: ED50 (50% of maximum effective dose)", "source_text": "ED50 is defined as 50% of maximum effective dose calculated by linear regression method. The term “treat” refers to the ability of the compounds to either relieve, alleviate, or slow the progression of the patient's disease."}, "[5]": {"settings": "40 mg/kg for one week, 60 min after glucose intake"}, "[6]": {"settings": "40 mg/kg for two weeks, 60 min after glucose addition"}, "[7]": {"settings": "40 mg/kg for two weeks, 120 min after glucose intake"}, "[8]": {"settings": "80 mg/kg for four weeks, 120 min after glucose intake"}, "[9]": {"settings": "80 mg/kg for four weeks, fasted state (13 hours)"}, "[10]": {"settings": "80 mg/kg for one week, 60 min after glucose intake"}, "[11]": {"settings": "80 mg/kg for one week, 120 min after glucose intake"}, "[12]": {"settings": "80 mg/kg for one week, fasted state (13 hours)"}, "[13]": {"settings": "80 mg/kg for two weeks, 60 min after glucose addition"}, "[14]": {"settings": "80 mg/kg for two weeks, 120 min after glucose intake"}},
  "data": [
    {"smiles": "O=C1NC(C(=O)O)CS1", "note": "[OTC, L-2-oxothiazolidine-4-carboxylic acid]", "values": [
      {"measurement": "insulin secretion ability compared to the control group", "setting": "[1]; 3-20 mg/kg single oral dose, p<0.05", "result": "improvement of insulin secretion ability"},
      {"measurement": "insulin secretion ability compared to the control group", "setting": "[1]; 40-160 mg/kg single oral dose, p<0.001", "result": "more than 2 times"},
      {"measurement": "Conc. of insulin", "setting": "[1]; OTC 1.5 mg/kg single oral dose", "result": 878, "unit": "pmol/L"},
      {"measurement": "Conc. of insulin", "setting": "[1]; OTC 3 mg/kg single oral dose", "result": 908, "unit": "pmol/L"},
      {"measurement": "Conc. of insulin", "setting": "[1]; OTC 10 mg/kg single oral dose", "result": 1103, "unit": "pmol/L"},
      {"measurement": "Conc. of insulin", "setting": "[1]; OTC 20 mg/kg single oral dose", "result": "1,205 pmol/l"},
      {"measurement": "Conc. of insulin", "setting": "[1]; OTC 40 mg/kg single oral dose", "result": "1,535 pmol/l"},
      {"measurement": "Conc. of insulin", "setting": "[1]; OTC 80 mg/kg single oral dose", "result": "1,750 pmol/l"},
      {"measurement": "Conc. of insulin", "setting": "[1]; OTC 160 mg/kg single oral dose", "result": 1684, "unit": "pmol/L"},
      {"measurement": "Conc. of insulin", "setting": "[1]; OTC 400 mg/kg single oral dose", "result": 1350, "unit": "pmol/L"},
      {"measurement": "insulin secretion ability compared to the control group", "setting": "[1]; over 400 mg/kg single oral dose, p<0.005", "result": "salient improvement of insulin secretion ability"},
      {"measurement": "blood glucose level", "setting": "[2]; 40 mg/kg for four weeks, 180 min after glucose intake", "result": "50.50 ± 44.21", "unit": "mg/dL"},
      {"measurement": "blood glucose level", "setting": "[2]; [5]", "result": "507.50 ± 52.81", "unit": "mg/dL"},
      {"measurement": "decrease of blood glucose level vs control group", "setting": "[2]; [5]", "result": 16.8, "unit": "%"},
      {"measurement": "blood glucose level", "setting": "[2]; [6]", "result": "699.00 ± 58.91", "unit": "mg/dL"},
      {"measurement": "lowering effect of blood glucose levels compared to the control group", "setting": "[2]; [6]", "result": 15.83, "unit": "%"},
      {"measurement": "blood glucose level", "setting": "[2]; [7]", "result": "599.50 ± 52.46", "unit": "mg/dL"},
      {"measurement": "lowering effect of blood glucose levels compared to the control group", "setting": "[2]; [7]", "result": 22.2, "unit": "%"},
      {"measurement": "blood glucose level", "setting": "[2]; 40 mg/kg for two weeks, fasted for 13 hours", "result": "306.30 ± 24.06", "unit": "mg/dL"},
      {"measurement": "blood glucose level", "setting": "[2]; [8]", "result": "539 ± 23.60", "unit": "mg/dL"},
      {"measurement": "lowering effect of blood glucose levels compared to the control group", "setting": "[2]; [8]", "result": 38.8, "unit": "%"},
      {"measurement": "blood glucose level", "setting": "[2]; [9]", "result": "297.00 ± 26.51", "unit": "mg/dL"},
      {"measurement": "more effective in lowering blood glucose levels than the control group", "setting": "[2]; [9]", "result": 32.5, "unit": "%"},
      {"measurement": "blood glucose level", "setting": "[2]; [10]", "result": "277.50 ± 40.89", "unit": "mg/dL"},
      {"measurement": "decrease of blood glucose level vs control group", "setting": "[2]; [10]", "result": 54.51, "unit": "%"},
      {"measurement": "blood glucose level", "setting": "[2]; [11]", "result": "158.00 ± 28.33", "unit": "mg/dL"},
      {"measurement": "decrease of blood glucose level vs control group", "setting": "[2]; [11]", "result": 72.11, "unit": "%"},
      {"measurement": "blood glucose level", "setting": "[2]; [12]", "result": "116.00 ± 119.74", "unit": "mg/dL"},
      {"measurement": "blood glucose level relative to the control group", "setting": "[2]; [12]", "result": 52.07, "unit": "%"},
      {"measurement": "blood glucose level", "setting": "[2]; [13]", "result": "477.50 ± 58.91", "unit": "mg/dL"},
      {"measurement": "blood glucose level relative to the control group", "setting": "[2]; [13]", "result": 42.50, "unit": "%"},
      {"measurement": "blood glucose level", "setting": "[2]; [14]", "result": "398.00 ± 28.33", "unit": "mg/dL"},
      {"measurement": "lowering effect of blood glucose levels compared to the control group", "setting": "[2]; [14]", "result": 48.81, "unit": "%"},
      {"measurement": "blood glucose level", "setting": "[2]; 80 mg/kg for two weeks, fasted for 13 hours", "result": "301.50 ± 12.2", "unit": "mg/dL"},
      {"measurement": "duration of the blood glucose lowering effect", "setting": "[2]; 40-80 mg/kg for four weeks", "result": "about 180 min"},
      {"measurement": "duration of the blood glucose lowering effect", "setting": "[2]; 40-80 mg/kg for one week", "result": "about 180 minutes"},
      {"measurement": "duration of the blood glucose lowering effect", "setting": "[2]; 40-80 mg/kg for two weeks", "result": "about 180 min"},
      {"measurement": "increase of lowering effect of blood glucose levels compared to the control group", "setting": "[2]; 40-80 mg/kg for two weeks, fasted for 13 hours", "result": 11.5, "unit": "%"},
      {"measurement": "duration of the effect on insulin concentration", "setting": "[3]", "result": "about 120 min"},
      {"measurement": "insulin concentration", "setting": "[3]; 120 min after glucose intake", "result": "1285.04 ± 135.60", "unit": "pmol/L"},
      {"measurement": "increase of insulin concentration compared to the control group", "setting": "[3]; after 120 min", "result": 4.93, "unit": "times"},
      {"measurement": "insulin concentration", "setting": "[3]; fasted state", "result": "450 ± 43.50", "unit": "pmol/L"},
      {"measurement": "ED50", "setting": "[4]", "result": 15, "unit": "mg/kg"}
    ]}
  ]
}
